Molecular target: T1, NTMT1 (Homo sapiens, UniProt Q9BV86)
T1 sequence (Q9BV86 1-223): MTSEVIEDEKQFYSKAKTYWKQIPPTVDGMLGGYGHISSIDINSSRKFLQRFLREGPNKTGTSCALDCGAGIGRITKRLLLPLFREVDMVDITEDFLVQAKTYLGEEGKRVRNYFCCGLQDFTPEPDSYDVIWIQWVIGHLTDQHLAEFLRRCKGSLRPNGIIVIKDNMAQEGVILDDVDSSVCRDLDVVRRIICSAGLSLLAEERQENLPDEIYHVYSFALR
Assay: SAHH-coupled fluorescence assay of NTMT1 inhibition
Format: biochemical
Conditions: at 10 μM

Nc1ncnc2c1ncn2[C@@H]1O[C@H](CN(CCCN2CCC[C@H]2C(=O)O)CC[C@H](N)C(=O)O)[C@@H](O)[C@H]1O [Compound 14, (3-(((S)-3-Amino-3-carboxypropyl)(((2R,3S,4R,5S)-5-(6-amino-9H-purin-9-yl)-3,4-dihydroxytetrahydrofuran-2-yl)-methyl)amino)propyl)-l-proline]
inhibition against NTMT1: did not show any significant inhibition

— publication PMC6760264 (Journal of medicinal chemistry, 2019)
